Experimental data: paper PMC7508162 (Frontiers in Pharmacology, 2020)

Molecular target: T1, NTPDase8 (Homo sapiens, UniProt Q5MY95)
T1 sequence (Q5MY95 1-495): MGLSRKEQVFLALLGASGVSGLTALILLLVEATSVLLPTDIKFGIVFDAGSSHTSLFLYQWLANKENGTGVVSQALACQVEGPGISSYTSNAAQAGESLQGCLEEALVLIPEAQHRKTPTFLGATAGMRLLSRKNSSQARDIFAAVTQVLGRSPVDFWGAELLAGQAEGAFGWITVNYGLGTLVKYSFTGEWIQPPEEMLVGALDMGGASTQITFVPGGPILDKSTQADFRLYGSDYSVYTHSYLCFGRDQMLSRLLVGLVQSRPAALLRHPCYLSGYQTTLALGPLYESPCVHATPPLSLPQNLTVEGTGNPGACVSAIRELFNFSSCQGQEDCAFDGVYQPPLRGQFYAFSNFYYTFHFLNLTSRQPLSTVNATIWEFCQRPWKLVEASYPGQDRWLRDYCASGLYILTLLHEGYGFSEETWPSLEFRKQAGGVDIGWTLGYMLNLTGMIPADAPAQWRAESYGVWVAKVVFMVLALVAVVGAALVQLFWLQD
Experiment: Malachite green assay for NTPDase8
Assay type: biochemical
Design: expressed in transfected cells; host or cells: COS-7 cell membrane preparations
Settings: for Ki: ATP 50 µM, recombinant COS-7 cell membrane preparation, read-out: Ki ± SEM; for % inhibition: test concentration not given
Description: The enzymatic activity assay was determined essentially as previously described ([Cogan et al., 1999]) with a few adaptations. The reaction buffer contained 10 mM HEPES, 2 mM CaCl2, 1 mM MgCl2, pH 7.4 in a final volume of 50 μl in transparent 96-well half area plates. For CD39 (NTPDase1), we made use of human umbilical cord membranes preparations which express high levels of the enzyme. For the other human NTPDase isoenzymes, we had to resort to recombinant expression. Human umbilical cord membrane preparations (250 ng) natively expressing high amounts of CD39, or the respective recombinant COS-7 cell membrane preparations expressing the appropriate NTPDase isoenzyme (ca. 100 ng of protein depending on enzyme activity) ([Sévigny et al., 1997]; [Lecka et al., 2013]) with or without inhibitor were preincubated at 37°C and gentle shaking (Eppendorf Thermomixer comfort at 500 rpm) for 5 min. The amount of enzyme preparation was adjusted to ensure 10–20% of substrate conversion. […] ([Kukulski et al., 2005]). After 15 min of incubation at 37°C with gentle shaking, the reaction was stopped by adding the detection reagents (20 µl malachite green solution, 0.6 mM, and 30 µl ammonium molybdate solution, 20 mM, in sulfuric acid, 1.5 M). The released (inorganic) phosphate was quantified after 20 min of gentle shaking at 25°C by measuring the absorption of the malachite green-phosphomolybdate complex at 600 nm using a BMG PheraStar FS plate reader (BMG Labtech GmbH, Ortenberg, Germany). The corrected absorption was calculated by subtracting the absorption of the negative control samples, which were incubated with denatured enzyme (90°C, 15 min), and the inhibition was calculated as follows:
% Inhibition=(B−T)/B*100%
where B is the average corrected absorption of the positive control without inhibitor and T the corrected absorption in the presence of test compound.
Full concentration-inhibition curves were determined with inhibitor concentrations ranging from 0.1 to 300 µM in the presence of 2% DMSO. Three independent experiments were performed (n = 3) and curves were calculated by the GraphPad Prism 8 software. The Ki value was calculated using the Cheng-Prusoff equation for competitive inhibitors: […]

Row | SMILES | Ki | % inhibition
1 | CCCCNc1nc2c(NC)ncnc2n1[C@@H]1O[C@H](COP(=O)(O)OP(=O)(O)C(Br)(Br)P(=O)(O)O)[C@@H](O)[C@H]1O [Compound 33, (Dibromo((((((2R,3S,4R,5R)-5-(8-(butylamino)-6-(methylamino)-9H-purin-9-yl)-3,4-dihydroxy-tetrahydrofuran-2-yl)methoxy)(hydroxy)phosphoryl)oxy)-(hydroxy)phosphoryl)methyl)-phosphonic Acid] | > 50 µM | -11%
2 | CCCCSc1nc2c(N)ncnc2n1[C@@H]1O[C@H](COP(=O)(O)OP(=O)(O)C(Br)(Br)P(=O)(O)O)[C@@H](O)[C@H]1O [Compound 31, (((((((2R,3S,4R,5R)-5-(6-Amino-8-(butylthio)-9H-purin-9-yl)-3,4-dihydroxytetrahydrofuran-2-yl)methoxy)(hydroxy)-phosphoryl)oxy)(hydroxy)phosphoryl)dibromomethyl)-phosphonic Acid] | > 50 µM | 2%
3 | CCN(CC)c1ncnc2c1ncn2[C@@H]1O[C@H](COP(=O)(O)OP(=O)(O)C(Br)(Br)P(=O)(O)O)[C@@H](O)[C@H]1O [ARL67156, (Dibromo((((((2R,3S,4R,5R)-5-(6-(diethylamino)-9H-purin-9-yl)-3,4-dihydroxytetrahydrofuran-2-yl)methoxy)-(hydroxy)-phosphoryl)oxy)(hydroxy)phosphoryl)methyl)-phosphonic Acid, reference compound] | > 50 µM | 2%
